Source: ChEMBL document CHEMBL3046150, “Quantitative Structure-Activity Relationships of Herbicidal N-Alkyl-N-(4-substituted benzyl)-4-chloro-2-pentenamides against Echinochloa oryzicola” (J Pestic Sci, 1999)

Experiment: Lipophilicity, log P of the compound
Assay type: physicochemical
Conditions: octanol/water

| SMILES | logP (read-out: logP) | logP |
| --- | --- | --- |
| CC(Cl)/C=C/C(=O)N(Cc1ccc(Cl)cc1)CC(C)C (configuration not stated) | 4.68 |  |
| CC(C)Oc1cc(-n2nc(C(C)(C)C)oc2=O)c(Cl)cc1Cl [OXADIAZON] |  | 4.78 |
